Test results reported in patent US20170305894A1, “PPAR AGONISTS, COMPOUNDS, PHARMACEUTICAL COMPOSITIONS, AND METHODS OF USE THEREOF” (priority 2014, published 2017).
Like-named read-outs stand apart in the source and are kept apart here.

Experiments:
PPARdelta = molecular target: T1, PPARdelta (Homo sapiens, UniProt Q03181); assay: NHR Protein Interaction Biosensor assay (PathHunter NHR cell lines, agonist format); format: cell-based
T1 construct: expressed in transfected cells
T1 sequence (Q03181 1-441): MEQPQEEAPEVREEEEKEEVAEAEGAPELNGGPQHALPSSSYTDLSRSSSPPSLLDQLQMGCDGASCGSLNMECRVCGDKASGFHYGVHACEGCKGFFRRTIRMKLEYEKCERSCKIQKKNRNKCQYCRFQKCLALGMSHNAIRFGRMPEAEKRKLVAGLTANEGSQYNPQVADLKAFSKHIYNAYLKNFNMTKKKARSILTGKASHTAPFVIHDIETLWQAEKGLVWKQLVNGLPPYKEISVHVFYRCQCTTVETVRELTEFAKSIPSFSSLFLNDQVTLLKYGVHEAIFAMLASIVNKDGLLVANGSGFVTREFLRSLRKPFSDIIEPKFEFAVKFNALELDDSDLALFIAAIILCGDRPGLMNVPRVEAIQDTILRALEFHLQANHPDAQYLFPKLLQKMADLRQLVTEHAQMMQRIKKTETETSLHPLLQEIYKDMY
Procedure: (2) Nuclear Hormone Receptor (NHR) Assays
PathHunter NHR cell lines were expanded from freezer stocks according to standard procedures. Cells were seeded in a total volume of 20 μL into white walled, 384-well microplates and incubated at 37° C. for the appropriate time prior to testing. Assay media contained charcoal-dextran filtered serum to reduce the level of hormones present.
For agonist determination, cells were incubated with sample to induce response. Intermediate dilution of sample stocks was performed to generate 5× sample in assay buffer. […] Final assay vehicle concentration was 1%.
Microplates were read following signal generation with a PerkinElmer Envision™ instrument for chemiluminescent signal detection.
Compound activity was analyzed using CBIS data analysis suite (ChemInnovation, CA). For agonist mode assays, percentage activity was calculated using the following formula:
% Activity=100%×(mean RLU of test sample−mean RLU of vehicle control)/(mean MAX control ligand−mean RLU of vehicle control).

Human PPARδ = molecular target: T2, Human PPARδ (Homo sapiens, UniProt Q03181); assay: PPARδ activity screen: GAL4-PPARδ LBD luciferase transactivation in CV-1 cells; format: cell-based
T2 construct: (PPARδ amino acid 128 to C-terminus); expressed in transfected cells; host or cells: CV-1 cells
T2 sequence (Q03181 128-441 limits assumed): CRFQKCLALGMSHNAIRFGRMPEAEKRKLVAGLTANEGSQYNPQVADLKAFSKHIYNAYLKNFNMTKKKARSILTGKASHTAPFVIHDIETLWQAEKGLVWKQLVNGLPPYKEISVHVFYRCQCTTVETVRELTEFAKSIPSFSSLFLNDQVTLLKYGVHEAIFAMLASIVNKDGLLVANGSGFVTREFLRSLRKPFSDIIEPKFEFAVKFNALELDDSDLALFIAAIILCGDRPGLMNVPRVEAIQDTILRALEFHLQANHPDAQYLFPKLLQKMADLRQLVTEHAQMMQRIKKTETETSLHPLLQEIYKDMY
Procedure: CV-1 cells were grown in DMEM+10% charcoal stripped FCS. Cells were seeded into 384-well plates the day before transfection to give a confluency of 50-80% at transfection. A total of […] containing 0.64 micrograms pCMX-PPARDelta LBD, 0.1 micrograms pCMXβGal, 0.08 micrograms pGLMH2004 reporter and 0.02 micrograms pCMX empty vector was transfected per well using FuGene transfection reagent according to the manufacturer's instructions (Roche). Cells were allowed to express protein for 48 h followed by addition of compound.
Human PPARδ was used to PCR amplify the PPARδ LBD. […] Ensuing fusions were verified by sequencing.
Compounds: All compounds were dissolved in DMSO and diluted 1:1000 upon addition to the cells. Compounds were tested in quadruple in concentrations ranging from 0.001 to 100 μM. Cells were treated with compound for 24 h followed by luciferase assay. Each compound was tested in at least two separate experiments.
The activity of a compound is calculated as fold induction compared to an untreated sample. For each compound the efficacy (maximal activity) is given as a relative activity compared to GW501516, a PPARδ agonist. […] EC50 values were calculated via non-linear regression using GraphPad PRISM (GraphPad Software, San Diego, Calif.).

[1] = PathHunter NHR cells, agonist format, read-out: NHR Protein Interaction Biosenor assay, PPARdelta EC50
[2] = CV-1 cells, GAL4-PPARδ LBD luciferase reporter, compound for 24 h, read-out: PPAR delta transactivation EC50

| EC50 (PPARdelta; [1]) | EC50 (Human PPARδ; [2]) | EC50 (PPARdelta) | EC50 (Human PPARδ) | SMILES |
| --- | --- | --- | --- | --- |
| < 0.51 nM | 0.9 nM |  |  | Cc1cnc(-c2ccc(-c3ccco3)cc2)n1Cc1ccccc1OCCCCCC(=O)O [Compound 8a, 6-(2-((2-(4-(furan-2-yl)phenyl)-5-methyl-1H-imidazol-1-yl)methyl)phenoxy) hexanoic acid] |
| 0.58 nM | 1.2 nM |  |  | Cc1ccc(-c2ccc(-c3ncc(C)n3Cc3ccccc3OCCCCCC(=O)O)cc2)o1 [Compound 8b, 6-(2-((5-methyl-2-(4-(5-methylfuran-2-yl)phenyl)-1H-imidazol-1-yl)methyl)phenoxy)hexanoic acid] |
| 0.84 nM | 4.5 nM |  |  | Cc1cnc(-c2ccc(-c3ccco3)cc2)n1Cc1ccccc1OCCCCC(C)(C)C(=O)O [Compound 8d, 6-(2-((2-(4-(furan-2-yl)phenyl)-5-methyl-1H-imidazol-1-yl)methyl)phenoxy)-2,2-dimethylhexanoic acid] |
| 0.79 nM | 1 nM |  |  | C/C(=C\COc1ccccc1Cn1c(C)cnc1-c1ccc(-c2ccco2)cc1)CCC(=O)O [Compound 8e, (E)-6-(2-((2-(4-(furan-2-yl)phenyl)-5-methyl-1H-imidazol-1-yl)methyl)phenoxy)-4-methylhex-4-enoic acid] |
| 0.65 nM | 8.3 nM |  |  | Cc1cnc(-c2ccc(C#CC(F)(F)F)cc2)n1Cc1ccccc1OCCCCCC(=O)O [Compound 8g, 6-(2-((5-methyl-2-(4-(3,3,3-trifluoroprop-1-yn-1-yl)phenyl)-1H-imidazol-1-yl)methyl)phenoxy)hexanoic acid] |
| 1.49 nM | 0.94 nM |  |  | Cc1cnc(-c2ccc(OC(F)(F)F)cc2)n1Cc1ccccc1OCCCCCC(=O)O [Compound 8h, 6-(2-((5-methyl-2-(4-(trifluoromethoxy)phenyl)-1H-imidazol-1-yl)methyl)phenoxy)hexanoic acid] |
|  | 15.7 nM | 13.4 nM |  | Cc1cn(Cc2ccccc2OCCCCCC(=O)O)c(-c2ccc(-c3ccco3)cc2)n1 [Compound 8i, 6-(2-((2-(4-(furan-2-yl)phenyl)-4-methyl-1H-imidazol-1-yl)methyl)phenoxy) hexanoic acid] |
| 5.01 nM | 56 nM |  |  | Cc1cn(Cc2ccccc2OCCCCCC(=O)O)c(-c2ccc(-c3ccc(C)o3)cc2)n1 [Compound 8j, 6-(2-((4-methyl-2-(4-(5-methylfuran-2-yl)phenyl)-1H-imidazol-1-yl)methyl)phenoxy)hexanoic acid] |
| 16.5 nM | 58 nM |  |  | Cc1cn(Cc2ccccc2OCCCCC(C)(C)C(=O)O)c(-c2ccc(-c3ccco3)cc2)n1 [Compound 8k, 6-(2-((2-(4-(furan-2-yl)phenyl)-4-methyl-1H-imidazol-1-yl)methyl)phenoxy)-2,2-dimethylhexanoic acid] |
| 1.28 nM | 9.5 nM |  |  | O=C(O)CCCCCOc1ccccc1Cn1ccnc1-c1ccc(-c2ccco2)cc1 [Compound 8l, 6-(2-((2-(4-(furan-2-yl)phenyl)-1H-imidazol-1-yl)methyl)phenoxy)hexanoic acid] |
|  |  | 1.27 nM | 18 nM | Cc1nc(-c2ccc(-c3ccco3)cc2)c(Cc2ccccc2OCCCCCC(=O)O)s1 [Compound 8m, 6-(2-((4-(4-(furan-2-yl)phenyl)-2-methylthiazol-5-yl)methyl)phenoxy) hexanoic acid] |
|  |  | 19.9 nM | 117 nM | Cn1cc(Cc2ccccc2OCCCCCC(=O)O)c(-c2ccc(-c3ccco3)cc2)n1 [Compound 8n, 6-(2-((3-(4-(furan-2-yl)phenyl)-1-methyl-1H-pyrazol-4-yl)methyl)phenoxy)hexanoic acid] |
|  |  | 9.12 nM | 2.9 nM | C/C(=C\COc1ccccc1Cc1c(C)noc1-c1ccc(-c2ccco2)cc1)CCC(=O)O [Compound 8o, (E)-6-(2-((5-(4-(furan-2-yl)phenyl)-3-methylisoxazol-4-yl)methyl)phenoxy)-4-methylhex-4-enoic acid] |
|  |  | 4.97 nM | 1.2 nM | C/C(=C\COc1ccccc1Cc1c(C)n[nH]c1-c1ccc(-c2ccco2)cc1)CCC(=O)O [Compound 8p, (E)-6-(2-((5-(4-(furan-2-yl)phenyl)-3-methyl-1H-pyrazol-4-yl)methyl)phenoxy)-4-methylhex-4-enoic acid] |
| 13 nM | 3.1 nM |  |  | Cc1cnc(-c2ccc(-c3ccco3)cc2)n1Cc1ccccc1CCCCCCC(=O)O [Compound 8q, 7-(2-((2-(4-(furan-2-yl)phenyl)-5-methyl-1H-imidazol-1-yl)methyl)phenyl)heptanoic acid] |
|  | 5.5 nM |  |  | C/C(=C\COc1ccccc1Cn1c(C)cnc1-c1ccc(Cl)nc1)CCC(=O)O [Compound 8r, (E)-6-(2-((2-(6-chloropyridin-3-yl)-5-methyl-1H-imidazol-1-yl)methyl)phenoxy)-4-methylhex-4-enoic acid] |
